The record followed here is US20250325552A1, “SUBSTITUTED THIADIAZOLYL DERIVATIVES AS DNA POLYMERASE THETA INHIBITORS” (IDEAYA Biosciences, Inc., priority 2020, published 2025).

pIC50: −log10 of the molar value. Where only a bound is given, the exact number is not on record here.

Chain of Polθ theta (1-899) (hPolQ) (O75417 1-899): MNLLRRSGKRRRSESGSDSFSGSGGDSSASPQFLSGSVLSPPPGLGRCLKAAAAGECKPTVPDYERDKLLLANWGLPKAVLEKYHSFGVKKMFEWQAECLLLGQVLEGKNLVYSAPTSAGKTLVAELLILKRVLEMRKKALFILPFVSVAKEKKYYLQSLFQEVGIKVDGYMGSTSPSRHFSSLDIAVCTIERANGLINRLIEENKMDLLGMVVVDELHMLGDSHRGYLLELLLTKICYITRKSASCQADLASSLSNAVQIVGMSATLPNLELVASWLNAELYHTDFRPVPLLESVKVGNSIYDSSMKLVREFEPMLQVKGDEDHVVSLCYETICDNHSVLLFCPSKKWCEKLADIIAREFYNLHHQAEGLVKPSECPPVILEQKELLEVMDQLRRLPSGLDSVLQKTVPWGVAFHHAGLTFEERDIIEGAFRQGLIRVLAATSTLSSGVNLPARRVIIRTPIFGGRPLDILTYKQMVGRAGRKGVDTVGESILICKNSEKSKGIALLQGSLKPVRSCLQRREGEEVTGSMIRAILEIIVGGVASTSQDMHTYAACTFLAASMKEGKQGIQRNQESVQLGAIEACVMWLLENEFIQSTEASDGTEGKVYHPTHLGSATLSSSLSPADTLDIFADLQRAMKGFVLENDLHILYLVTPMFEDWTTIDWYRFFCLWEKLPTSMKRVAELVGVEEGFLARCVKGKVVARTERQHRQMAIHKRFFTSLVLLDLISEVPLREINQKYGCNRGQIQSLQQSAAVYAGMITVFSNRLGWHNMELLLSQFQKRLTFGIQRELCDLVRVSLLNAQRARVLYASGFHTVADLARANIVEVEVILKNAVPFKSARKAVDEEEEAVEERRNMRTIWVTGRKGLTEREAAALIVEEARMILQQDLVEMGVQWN

The test concerns the target Polθ theta (1-899) (hPolQ) (Homo sapiens (Human), UniProt O75417). As to the kind of experiment: Biological Assay 1: Polθ ATPase activity, NADH oxidation-coupled enzymatic assay (10 nM enzyme, 30 min). It counts as biochemical. The note with it: Polθ (1-899) 10 nM, 100 μM ATP, 300 nM dT50 ssDNA; Examples 1 to 268; read-out: ATPase NADH coupling:Standard Screening:hPolQ IC50. The procedure, abridged:
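ATP turnover was coupled to NADH oxidation and followed at 340 nm every minute for 30 min. Enzyme (residues 1-899, 10 nM) sat with compound for 15 min at room temperature before an equal-volume addition of 100 μM ATP plus 300 nM dT50 ssDNA. Progress-curve slopes from 10-point dilutions were fitted by a four-parameter model.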
What is called pIC50 is the IC50 on a negative log10 scale, so that one unit is a factor of ten. As to `COc1cccc(F)c1-c1cc(C)ncc1C(=O)Nc1nnc(OCC2CC3(CC(O)C3)C2)s1` (centres unmarked) [Example 141, 4-(2-fluoro-6-methoxyphenyl)-N-(5-((6-hydroxyspiro(3.3)heptan-2-yl)methoxy)-1,3,4-thiadiazol-2-yl)-6-methylpyridine-3-carboxamide], the pIC50 was ≥ 6.70.
For the compound `COc1ccc(Cl)cc1-c1cc(C)ncc1C(=O)Nc1nnc(OCc2ccc(C(C)(C)O)cn2)s1` [Example 96, 4-(5-chloro-2-methoxyphenyl)-N-(5-((5-(2-hydroxypropan-2-yl)pyridin-2-yl)methoxy)-1,3,4-thiadiazol-2-yl)-6-methylnicotinamide], the pIC50 was ≥ 6.70.
In the case of `COc1cnc(Cl)cc1-c1cc(C)ncc1C(=O)Nc1nnc(OCC23CCC(O)(CC2)CC3)s1` [Example 136, 2′-chloro-N-(5-((4-hydroxybicyclo(2.2.2)octan-1-yl)methoxy)-1,3,4-thiadiazol-2-yl)-5′-methoxy-6-methyl-(4,4′-bipyridine)-3-carboxamide], the pIC50 was ≥ 6.70.
With `COc1cnc(C)cc1-c1cc(C)ncc1C(=O)Nc1nnc(OCc2ccc(Cl)cn2)s1` [Example 36, N-(5-((5-chloropyridin-2-yl)methoxy)-1,3,4-thiadiazol-2-yl)-5′-methoxy-2′,6-dimethyl-(4,4′-bipyridine)-3-carboxamide], the negative logarithm of the IC50 (pIC50) is ≥ 6.70.
On to `COc1cccc(F)c1-c1cc(C)ncc1C(=O)Nc1nnc(OCc2ccc(C(C)O)cn2)s1` (racemic) [Example 22, 4-(2-fluoro-6-methoxyphenyl)-N-(5-((5-(1-hydroxyethyl)pyridin-2-yl)methoxy)-1,3,4-thiadiazol-2-yl)-6-methylnicotinamide], for which the pIC50 was ≥ 6.70.
Regarding `COc1cccc(F)c1-c1cn2ncc(F)c2cc1C(=O)Nc1nnc(OC[C@H]2CC[C@H](O)CC2)s1` [Example 201, 3-fluoro-6-(2-fluoro-6-methoxyphenyl)-N-(5-(((1r,4r)-4-hydroxycyclohexyl)methoxy)-1,3,4-thiadiazol-2-yl)pyrazolo(1,5-a)pyridine-5-carboxamide], the pIC50 was ≥ 6.70.
Regarding `COc1cccc(F)c1-c1cc(C)ncc1C(=O)Nc1nnc(OCc2ccc(S(C)(=N)=O)cc2)s1` (racemic) [Example 79, 4-(2-fluoro-6-methoxyphenyl)-6-methyl-N-(5-((4-(S-methylsulfonimidoyl)benzyl)oxy)-1,3,4-thiadiazol-2-yl)nicotinamide], the negative logarithm of the IC50 (pIC50) is ≥ 6.70.
On to `COc1ccc(Cl)cc1-c1cc(C)ncc1C(=O)Nc1nnc(OCc2ccc([S@@](C)(=N)=O)cc2)s1` [Example 123, (S)-4-(5-chloro-2-methoxyphenyl)-6-methyl-N-(5-((4-(S-methylsulfonimidoyl)benzyl)oxy)-1,3,4-thiadiazol-2-yl)nicotinamide], for which the pIC50 was ≥ 6.70.
With `COc1cnc(Cl)c(F)c1-c1cc(C)ncc1C(=O)Nc1nnc(OC[C@H]2CC[C@H](O)CC2)s1` [Example 248, 2′-chloro-3′-fluoro-N-(5-(((1r,4r)-4-hydroxycyclohexyl)methoxy)-1,3,4-thiadiazol-2-yl)-5′-methoxy-6-methyl-(4,4′-bipyridine)-3-carboxamide], the pIC50 is ≥ 6.70.
Turning to `COc1cccc(F)c1-c1cc(C)ncc1C(=O)Nc1nnc(OCc2ccc([C@@H](C)O)cn2)s1` [Example 41, 4-(2-fluoro-6-methoxyphenyl)-N-(5-((5-((R)-1-hydroxyethyl)pyridin-2-yl)methoxy)-1,3,4-thiadiazol-2-yl)-6-methylnicotinamide], the pIC50 is ≥ 6.70.
`COc1cccc(F)c1-c1cc(C)ncc1C(=O)Nc1nnc(OCC23CCC(O)(CC2)C3)s1` [Example 112, 4-(2-fluoro-6-methoxyphenyl)-N-(5-((4-hydroxybicyclo(2.2.1)heptan-1-yl)methoxy)-1,3,4-thiadiazol-2-yl)-6-methylpyridine-3-carboxamide]: the pIC50 was ≥ 6.70.
Under `COc1cnc(Cl)cc1-c1cc(C)ncc1C(=O)Nc1nnc(OCC2(C#N)CC2)s1` [Example 205, 2′-chloro-N-(5-((1-cyanocyclopropyl)methoxy)-1,3,4-thiadiazol-2-yl)-5′-methoxy-6-methyl-(4,4′-bipyridine)-3-carboxamide] stands ≥ 6.70; under `COc1cccc(F)c1-c1cc(C)ncc1C(=O)Nc1nnc(OCC23CC(C(C)(C)O)(C2)C3)s1` [Example 103, 4-(2-fluoro-6-methoxyphenyl)-N-(5-((3-(2-hydroxypropan-2-yl)bicyclo(1.1.1)pentan-1-yl)methoxy)-1,3,4-thiadiazol-2-yl)-6-methylpyridine-3-carboxamide], ≥ 6.70; under `COc1c(-c2cc(C)ncc2C(=O)Nc2nnc(OCc3ccc(Cl)cn3)s2)ccnc1Cl` [Example 77, 2′-chloro-N-(5-((5-chloropyridin-2-yl)methoxy)-1,3,4-thiadiazol-2-yl)-3′-methoxy-6-methyl-(4,4′-bipyridine)-3-carboxamide], ≥ 6.70.
For the compound `COc1cnc(Cl)cc1-c1cc(C)ncc1C(=O)Nc1nnc(OCC2(C)CCOC2)s1` (centres unmarked) [Example 131, 2′-chloro-5′-methoxy-6-methyl-N-(5-((3-methyloxolan-3-yl)methoxy)-1,3,4-thiadiazol-2-yl)-(4,4′-bipyridine)-3-carboxamide], the pIC50 is ≥ 6.70.
For `Cc1cc(-c2c(F)cccc2OC(F)F)c(C(=O)Nc2nnc(OCc3ccc([C@H](C)O)cn3)s2)cn1` [Example 56, 4-(2-(difluoromethoxy)-6-fluorophenyl)-N-(5-((5-((S)-1-hydroxyethyl)pyridin-2-yl)methoxy)-1,3,4-thiadiazol-2-yl)-6-methylnicotinamide], the pIC50 is ≥ 6.70.
Then `Cc1cc(-c2c(F)cccc2OC(F)F)c(C(=O)Nc2nnc(OCc3ccc(CO)cn3)s2)cn1` [Example 25, 4-(2-(difluoromethoxy)-6-fluorophenyl)-N-(5-((5-(hydroxymethyl)pyridin-2-yl)methoxy)-1,3,4-thiadiazol-2-yl)-6-methylnicotinamide], with ≥ 6.70; and `COc1cnc(C)c(F)c1-c1cc(C)ncc1C(=O)Nc1nnc(OC[C@H]2CCOC2)s1` [Example 249, 3′-fluoro-5′-methoxy-2′,6-dimethyl-N-(5-(((S)-tetrahydrofuran-3-yl)methoxy)-1,3,4-thiadiazol-2-yl)-(4,4′-bipyridine)-3-carboxamide], with ≥ 6.70.
As for `COc1cccc(F)c1-c1cc(C)ncc1C(=O)Nc1nnc(OC[C@H]2CC[C@@H](O)CC2)s1` [Example 101, 4-(2-fluoro-6-methoxyphenyl)-N-(5-(((1s,4s)-4-hydroxycyclohexyl)methoxy)-1,3,4-thiadiazol-2-yl)-6-methylnicotinamide], the pIC50 was ≥ 6.70.
Then `COc1cnc(Br)cc1-c1cc(C)ncc1C(=O)Nc1nnc(OC[C@H]2COCCO2)s1` [Example 236, (R)—N-(5-((1,4-dioxan-2-yl)methoxy)-1,3,4-thiadiazol-2-yl)-2′-bromo-5′-methoxy-6-methyl-(4,4′-bipyridine)-3-carboxamide], with ≥ 6.70.
On to `COc1cccc(F)c1-c1cc(C)ncc1C(=O)Nc1nnc(OCc2ccc(C(C)(C)O)nc2)s1` [Example 109, 4-(2-fluoro-6-methoxyphenyl)-N-(5-((6-(2-hydroxypropan-2-yl)pyridin-3-yl)methoxy)-1,3,4-thiadiazol-2-yl)-6-methylpyridine-3-carboxamide], for which the pIC50 is ≥ 6.70.
Consider `COc1cnc(Cl)cc1-c1cc(C)ncc1C(=O)Nc1nnc(OC[C@H]2COC[C@H]2C)s1` (single isomer, unassigned) [Example 267], for which the pIC50 was ≥ 6.70.
Take `COc1ccccc1-c1cc(C)ncc1C(=O)Nc1nnc(OC[C@@H](O)c2ccc(Cl)cn2)s1` [Example 28, (S)—N-(5-(2-(5-chloropyridin-2-yl)-2-hydroxyethoxy)-1,3,4-thiadiazol-2-yl)-4-(2-methoxyphenyl)-6-methylnicotinamide]: the pIC50 is 6.00 to 6.30.
In the case of `COc1cccc(F)c1-c1cc(C)ncc1C(=O)Nc1nnc(OCc2ccc(C(C)(C)O)cn2)s1` [Example 33, 4-(2-fluoro-6-methoxyphenyl)-N-(5-((5-(2-hydroxypropan-2-yl)pyridin-2-yl)methoxy)-1,3,4-thiadiazol-2-yl)-6-methylnicotinamide], the pIC50 was ≥ 6.70.
For the compound `COc1cnc(Cl)cc1-c1cc(C)ncc1C(=O)Nc1nnc(OCC2CCOC2)s1` (racemic) [Example 167, 2′-chloro-5′-methoxy-6-methyl-N-(5-((tetrahydrofuran-3-yl)methoxy)-1,3,4-thiadiazol-2-yl)-(4,4′-bipyridine)-3-carboxamide], the pIC50 is ≥ 6.70.
Then `COc1cnc(C)cc1-c1cc(C)ncc1C(=O)Nc1nnc(OCC2(F)CC2)s1` [Example 203, N-(5-((1-fluorocyclopropyl)methoxy)-1,3,4-thiadiazol-2-yl)-5′-methoxy-2′,6-dimethyl-(4,4′-bipyridine)-3-carboxamide], with ≥ 6.70; and `COc1cnc(Cl)cc1-c1cc(C)ncc1C(=O)Nc1nnc(OCC2CCN(C)CC2)s1` [Example 178, 2′-chloro-5′-methoxy-6-methyl-N-(5-((1-methylpiperidin-4-yl)methoxy)-1,3,4-thiadiazol-2-yl)-(4,4′-bipyridine)-3-carboxamide], with 6.30 to 6.70; and `COc1cccc(COc2nnc(NC(=O)c3cnc(C)cc3-c3c(F)cccc3OC)s2)n1` [Example 91, 4-(2-fluoro-6-methoxyphenyl)-N-(5-((6-methoxypyridin-2-yl)methoxy)-1,3,4-thiadiazol-2-yl)-6-methylpyridine-3-carboxamide], with ≥ 6.70.
As to `COc1cnc(Br)cc1-c1cc(C)ncc1C(=O)Nc1nnc(OC[C@H]2CC[C@H](O)CC2)s1` [Example 247, 2′-bromo-N-(5-(((1r,4r)-4-hydroxycyclohexyl)methoxy)-1,3,4-thiadiazol-2-yl)-5′-methoxy-6-methyl-(4,4′-bipyridine)-3-carboxamide], the pIC50 is ≥ 6.70.
